Laboratory results: the supplement of paper PMC12076712

Experiments:
Assay in all cases: pIC50, kinobeads binding competition
UniProt Q00537 = target: UniProt Q00537
How it was run: (§1)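 Nine compound concentrations were tested, starting at 30 μM in 1:4 steps on live Jurkat cells (60 min, 37 °C, then lysis) or in 1:5 steps on Jurkat lysate or a 1:1:1:1 HEK293/K-562/HepG2/placenta lysate mix (60 min, 4 °C). Kinobeads-bound proteins were digested and quantified with TMT10 LC-MS/MS. pIC50 values are from logistic dose-response fits in the R drc package of fold changes relative to vehicle, from biological duplicates.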

UniProt P52564 = target: T1, UniProt P52564
T1 sequence (whole entry): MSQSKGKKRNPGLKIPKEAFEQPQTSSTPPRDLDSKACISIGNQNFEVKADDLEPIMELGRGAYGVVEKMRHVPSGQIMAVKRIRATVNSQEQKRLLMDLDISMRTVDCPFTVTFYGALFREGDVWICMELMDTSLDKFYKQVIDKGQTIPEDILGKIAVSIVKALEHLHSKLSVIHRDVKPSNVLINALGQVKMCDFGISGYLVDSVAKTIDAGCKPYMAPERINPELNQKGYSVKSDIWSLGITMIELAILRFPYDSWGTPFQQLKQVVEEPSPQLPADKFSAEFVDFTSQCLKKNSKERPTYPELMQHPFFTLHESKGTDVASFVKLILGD
How it was run: as §1

UniProt Q96D53 = target: T2, UniProt Q96D53
T2 sequence (whole entry): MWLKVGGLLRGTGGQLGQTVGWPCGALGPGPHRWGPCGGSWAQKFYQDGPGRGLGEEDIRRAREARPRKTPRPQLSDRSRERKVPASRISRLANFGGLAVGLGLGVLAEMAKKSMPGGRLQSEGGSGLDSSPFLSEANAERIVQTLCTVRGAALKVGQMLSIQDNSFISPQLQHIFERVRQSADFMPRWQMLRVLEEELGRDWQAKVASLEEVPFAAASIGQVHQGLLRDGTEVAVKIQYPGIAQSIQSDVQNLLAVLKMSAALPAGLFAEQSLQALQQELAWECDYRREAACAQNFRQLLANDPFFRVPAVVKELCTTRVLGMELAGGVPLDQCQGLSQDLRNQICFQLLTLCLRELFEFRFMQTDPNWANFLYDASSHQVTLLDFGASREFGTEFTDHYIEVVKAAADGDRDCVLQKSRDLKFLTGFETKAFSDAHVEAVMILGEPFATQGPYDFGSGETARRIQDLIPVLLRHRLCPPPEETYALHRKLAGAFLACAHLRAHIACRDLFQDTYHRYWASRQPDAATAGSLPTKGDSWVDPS
How it was run: as §1

UniProt Q8NEB9 = target: UniProt Q8NEB9
UniProt Q8NEB9, sequence (Q8NEB9 whole entry): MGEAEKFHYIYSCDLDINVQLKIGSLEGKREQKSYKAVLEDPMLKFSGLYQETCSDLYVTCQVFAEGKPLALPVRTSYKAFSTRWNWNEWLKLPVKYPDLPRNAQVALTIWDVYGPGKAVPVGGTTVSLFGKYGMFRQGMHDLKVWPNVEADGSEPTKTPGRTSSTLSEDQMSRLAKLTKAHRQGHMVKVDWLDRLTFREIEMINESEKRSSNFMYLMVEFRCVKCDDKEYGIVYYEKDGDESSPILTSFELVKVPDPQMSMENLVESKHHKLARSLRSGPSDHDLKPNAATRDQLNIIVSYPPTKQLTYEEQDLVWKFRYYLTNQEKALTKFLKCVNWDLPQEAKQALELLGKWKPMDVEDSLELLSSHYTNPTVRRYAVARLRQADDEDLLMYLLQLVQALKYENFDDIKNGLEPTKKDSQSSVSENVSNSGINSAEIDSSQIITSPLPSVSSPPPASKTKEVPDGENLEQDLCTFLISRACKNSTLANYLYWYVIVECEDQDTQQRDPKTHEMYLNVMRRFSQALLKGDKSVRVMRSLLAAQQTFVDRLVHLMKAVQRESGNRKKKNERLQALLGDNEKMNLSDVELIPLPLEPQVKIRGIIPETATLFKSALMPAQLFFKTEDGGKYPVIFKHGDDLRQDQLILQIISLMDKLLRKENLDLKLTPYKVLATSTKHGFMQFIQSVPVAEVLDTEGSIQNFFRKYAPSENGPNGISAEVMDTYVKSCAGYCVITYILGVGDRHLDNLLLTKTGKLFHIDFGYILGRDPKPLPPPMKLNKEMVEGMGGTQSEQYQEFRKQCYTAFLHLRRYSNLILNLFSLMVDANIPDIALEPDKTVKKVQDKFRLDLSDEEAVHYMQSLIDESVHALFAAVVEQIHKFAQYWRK
How it was run: as §1

EPHA1 = target: T3, EPHA1 (UniProt P21709); settings: cell material: Lysate mix
T3 sequence (whole entry): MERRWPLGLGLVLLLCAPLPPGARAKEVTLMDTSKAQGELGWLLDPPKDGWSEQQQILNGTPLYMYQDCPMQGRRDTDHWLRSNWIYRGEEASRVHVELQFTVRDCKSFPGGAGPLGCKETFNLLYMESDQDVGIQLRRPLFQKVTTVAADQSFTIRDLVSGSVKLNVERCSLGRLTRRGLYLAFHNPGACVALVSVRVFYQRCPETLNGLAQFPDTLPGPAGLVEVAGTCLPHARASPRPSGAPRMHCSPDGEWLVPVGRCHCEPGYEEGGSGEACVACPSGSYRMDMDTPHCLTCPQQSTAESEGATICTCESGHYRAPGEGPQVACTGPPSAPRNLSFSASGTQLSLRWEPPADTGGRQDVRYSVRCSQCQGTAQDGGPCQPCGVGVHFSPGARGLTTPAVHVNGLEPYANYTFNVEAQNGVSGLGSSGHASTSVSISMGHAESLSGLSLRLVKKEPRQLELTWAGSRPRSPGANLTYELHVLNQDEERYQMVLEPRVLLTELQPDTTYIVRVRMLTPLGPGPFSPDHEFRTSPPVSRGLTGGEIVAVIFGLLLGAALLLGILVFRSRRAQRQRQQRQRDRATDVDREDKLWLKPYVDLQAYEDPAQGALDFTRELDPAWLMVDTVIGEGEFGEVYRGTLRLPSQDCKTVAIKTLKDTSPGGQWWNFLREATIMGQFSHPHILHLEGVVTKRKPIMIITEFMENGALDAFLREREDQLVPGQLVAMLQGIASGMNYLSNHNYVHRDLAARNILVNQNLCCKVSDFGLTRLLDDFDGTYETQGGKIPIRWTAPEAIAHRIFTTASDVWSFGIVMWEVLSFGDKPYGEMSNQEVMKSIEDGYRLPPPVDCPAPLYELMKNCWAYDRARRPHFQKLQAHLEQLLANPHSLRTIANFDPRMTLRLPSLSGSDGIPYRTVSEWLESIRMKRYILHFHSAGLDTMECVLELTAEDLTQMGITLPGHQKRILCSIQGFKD
How it was run: as §1

IRAK3 = target: T4, IRAK3 (UniProt Q9Y616); settings: cell material: Lysate mix
T4 sequence (whole entry): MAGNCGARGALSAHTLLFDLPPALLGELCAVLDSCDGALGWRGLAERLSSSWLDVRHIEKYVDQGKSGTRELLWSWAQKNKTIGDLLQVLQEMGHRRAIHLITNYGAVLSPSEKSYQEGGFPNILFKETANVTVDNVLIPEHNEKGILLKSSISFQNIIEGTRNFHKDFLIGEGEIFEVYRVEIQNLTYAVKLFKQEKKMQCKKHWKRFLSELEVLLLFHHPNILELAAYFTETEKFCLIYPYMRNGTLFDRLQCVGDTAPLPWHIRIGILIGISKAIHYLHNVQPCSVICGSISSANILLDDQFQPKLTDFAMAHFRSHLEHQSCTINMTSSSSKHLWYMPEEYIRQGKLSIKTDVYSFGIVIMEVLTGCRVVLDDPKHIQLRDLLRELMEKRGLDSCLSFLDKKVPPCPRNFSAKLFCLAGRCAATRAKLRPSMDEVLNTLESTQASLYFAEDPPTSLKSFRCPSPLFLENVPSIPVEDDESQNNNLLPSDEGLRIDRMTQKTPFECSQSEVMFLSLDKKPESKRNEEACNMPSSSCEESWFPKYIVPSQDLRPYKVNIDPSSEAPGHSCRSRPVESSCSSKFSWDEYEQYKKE
How it was run: as §1

KIT = KIT (UniProt P10721); settings: cell material: Lysate mix
How it was run: as §1

SRPK1 = SRPK1 (UniProt Q96SB4)
SRPK1, sequence (Q96SB4 whole entry): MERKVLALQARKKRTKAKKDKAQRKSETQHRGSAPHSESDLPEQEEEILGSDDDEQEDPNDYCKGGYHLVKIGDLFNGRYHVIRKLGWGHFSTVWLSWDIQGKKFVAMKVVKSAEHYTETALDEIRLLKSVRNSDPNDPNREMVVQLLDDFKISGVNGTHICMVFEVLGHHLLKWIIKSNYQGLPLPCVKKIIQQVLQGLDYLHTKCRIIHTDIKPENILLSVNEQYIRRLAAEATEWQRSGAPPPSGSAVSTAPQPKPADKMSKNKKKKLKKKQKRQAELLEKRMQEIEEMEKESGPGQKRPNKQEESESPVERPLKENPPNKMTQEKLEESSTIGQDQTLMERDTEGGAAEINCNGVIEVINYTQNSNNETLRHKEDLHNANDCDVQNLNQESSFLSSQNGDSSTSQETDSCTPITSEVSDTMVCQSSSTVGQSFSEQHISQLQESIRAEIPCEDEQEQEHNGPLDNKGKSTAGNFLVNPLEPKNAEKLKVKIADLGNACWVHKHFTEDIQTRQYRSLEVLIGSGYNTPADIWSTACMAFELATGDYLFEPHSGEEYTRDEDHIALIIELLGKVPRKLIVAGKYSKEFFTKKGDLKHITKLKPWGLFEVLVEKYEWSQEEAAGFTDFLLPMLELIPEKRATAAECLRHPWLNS
How it was run: as §1

Fes = Fes (UniProt P07332); settings: cell material: Lysate mix
Fes, sequence (P07332 whole entry): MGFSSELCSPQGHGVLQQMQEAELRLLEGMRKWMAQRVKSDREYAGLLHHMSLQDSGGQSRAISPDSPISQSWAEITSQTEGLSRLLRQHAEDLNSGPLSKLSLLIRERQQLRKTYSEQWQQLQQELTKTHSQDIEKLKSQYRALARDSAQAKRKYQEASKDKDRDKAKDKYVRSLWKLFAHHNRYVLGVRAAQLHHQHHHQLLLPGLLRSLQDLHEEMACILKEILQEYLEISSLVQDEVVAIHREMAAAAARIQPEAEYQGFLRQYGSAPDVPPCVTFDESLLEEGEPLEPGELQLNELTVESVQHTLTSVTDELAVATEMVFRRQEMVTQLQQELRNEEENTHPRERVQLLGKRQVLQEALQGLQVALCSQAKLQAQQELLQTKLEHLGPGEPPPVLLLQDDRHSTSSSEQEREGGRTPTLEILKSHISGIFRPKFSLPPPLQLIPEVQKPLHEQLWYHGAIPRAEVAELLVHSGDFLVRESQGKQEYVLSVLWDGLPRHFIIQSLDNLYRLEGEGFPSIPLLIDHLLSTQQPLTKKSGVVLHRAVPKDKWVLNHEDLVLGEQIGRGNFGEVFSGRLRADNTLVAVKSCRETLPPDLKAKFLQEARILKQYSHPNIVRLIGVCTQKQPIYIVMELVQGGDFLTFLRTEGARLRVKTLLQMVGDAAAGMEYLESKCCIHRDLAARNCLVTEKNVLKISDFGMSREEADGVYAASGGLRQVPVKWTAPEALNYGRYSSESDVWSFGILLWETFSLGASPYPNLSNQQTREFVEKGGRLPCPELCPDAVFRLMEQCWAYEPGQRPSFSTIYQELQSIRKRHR
How it was run: as §1

UniProt Q14004 = target: UniProt Q14004
UniProt Q14004, sequence (Q14004 whole entry, looked up): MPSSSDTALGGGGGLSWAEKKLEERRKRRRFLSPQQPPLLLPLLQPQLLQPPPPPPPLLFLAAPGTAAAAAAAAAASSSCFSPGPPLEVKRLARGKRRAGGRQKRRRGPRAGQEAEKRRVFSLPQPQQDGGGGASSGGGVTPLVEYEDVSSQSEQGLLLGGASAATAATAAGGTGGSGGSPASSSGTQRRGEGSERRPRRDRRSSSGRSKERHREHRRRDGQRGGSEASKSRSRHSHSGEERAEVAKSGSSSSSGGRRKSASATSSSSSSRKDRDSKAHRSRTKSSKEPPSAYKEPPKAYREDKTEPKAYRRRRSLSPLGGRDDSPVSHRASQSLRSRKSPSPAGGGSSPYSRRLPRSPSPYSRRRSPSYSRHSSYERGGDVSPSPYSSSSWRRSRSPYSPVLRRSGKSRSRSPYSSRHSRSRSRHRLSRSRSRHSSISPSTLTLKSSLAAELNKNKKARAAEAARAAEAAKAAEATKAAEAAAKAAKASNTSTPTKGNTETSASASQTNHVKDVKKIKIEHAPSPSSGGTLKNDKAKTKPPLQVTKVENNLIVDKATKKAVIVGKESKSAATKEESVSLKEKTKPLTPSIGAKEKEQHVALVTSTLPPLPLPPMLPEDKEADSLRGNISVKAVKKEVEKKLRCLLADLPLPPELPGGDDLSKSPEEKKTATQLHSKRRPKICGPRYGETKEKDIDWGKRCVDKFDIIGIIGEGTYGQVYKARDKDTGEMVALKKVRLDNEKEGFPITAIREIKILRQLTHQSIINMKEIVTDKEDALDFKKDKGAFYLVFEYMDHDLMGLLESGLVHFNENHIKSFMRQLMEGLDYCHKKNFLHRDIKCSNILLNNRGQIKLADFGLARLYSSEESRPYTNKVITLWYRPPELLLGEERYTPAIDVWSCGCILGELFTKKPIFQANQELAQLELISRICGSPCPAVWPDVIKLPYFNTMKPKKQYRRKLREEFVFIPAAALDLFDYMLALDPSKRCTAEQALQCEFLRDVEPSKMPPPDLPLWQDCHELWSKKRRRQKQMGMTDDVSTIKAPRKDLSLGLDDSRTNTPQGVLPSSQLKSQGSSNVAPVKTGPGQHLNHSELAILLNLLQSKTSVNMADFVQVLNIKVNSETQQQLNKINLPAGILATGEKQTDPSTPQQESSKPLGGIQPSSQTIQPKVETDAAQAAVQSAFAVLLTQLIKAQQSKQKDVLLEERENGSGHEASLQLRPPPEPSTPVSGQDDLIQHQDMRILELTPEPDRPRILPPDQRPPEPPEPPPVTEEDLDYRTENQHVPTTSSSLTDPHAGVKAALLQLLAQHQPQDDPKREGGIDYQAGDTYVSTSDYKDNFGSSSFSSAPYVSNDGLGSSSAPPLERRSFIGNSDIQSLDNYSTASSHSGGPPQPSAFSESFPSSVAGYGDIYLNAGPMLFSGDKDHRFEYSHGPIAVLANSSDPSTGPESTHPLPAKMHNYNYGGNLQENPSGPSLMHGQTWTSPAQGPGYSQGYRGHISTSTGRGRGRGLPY
How it was run: as §1

UniProt Q00537, sequence (Q00537 whole entry, looked up): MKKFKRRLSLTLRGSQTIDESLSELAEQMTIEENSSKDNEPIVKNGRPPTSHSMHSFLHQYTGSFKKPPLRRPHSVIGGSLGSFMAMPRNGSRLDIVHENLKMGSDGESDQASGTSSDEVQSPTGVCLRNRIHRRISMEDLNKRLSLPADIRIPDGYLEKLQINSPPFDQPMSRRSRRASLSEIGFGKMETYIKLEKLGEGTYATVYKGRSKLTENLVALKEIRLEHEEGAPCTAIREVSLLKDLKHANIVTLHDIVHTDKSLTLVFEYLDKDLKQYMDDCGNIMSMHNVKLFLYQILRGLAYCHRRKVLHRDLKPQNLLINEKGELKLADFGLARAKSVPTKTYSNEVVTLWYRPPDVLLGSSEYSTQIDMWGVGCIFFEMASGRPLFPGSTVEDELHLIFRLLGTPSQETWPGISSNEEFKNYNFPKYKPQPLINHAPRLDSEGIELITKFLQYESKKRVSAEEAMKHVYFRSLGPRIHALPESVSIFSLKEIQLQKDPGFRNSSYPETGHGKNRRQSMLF

Compound | pIC50 (UniProt Q00537; cell material: Jurkat cells) | pIC50 (UniProt Q00537; cell material: Jurkat lysate) | pIC50 (UniProt Q00537; cell material: Lysate mix) | pIC50 (UniProt P52564; cell material: Jurkat cells) | pIC50 (UniProt P52564; cell material: Jurkat lysate) | pIC50 (UniProt P52564; cell material: Lysate mix) | pIC50 (UniProt Q96D53; cell material: Jurkat cells) | pIC50 (UniProt Q8NEB9; cell material: Jurkat cells) | pIC50 (EPHA1) | pIC50 (IRAK3) | pIC50 (KIT) | pIC50 (SRPK1; cell material: Jurkat cells) | pIC50 (Fes) | pIC50 (UniProt Q14004; cell material: Jurkat cells) | pIC50 (UniProt Q14004; cell material: Jurkat lysate) | pIC50 (UniProt Q14004; cell material: Lysate mix) | pIC50 (SRPK1; cell material: Lysate mix) | pIC50 (UniProt Q96D53; cell material: Lysate mix) | pIC50 (UniProt Q8NEB9; cell material: Lysate mix)
C#CCNC(=O)c1cc(Nc2cc(C3CC3)[nH]n2)nc(N2CCN(Cc3ccc(S(=O)(=O)F)cc3)CC2)n1 | 6.39 | 5.11 | 5.7 | 5.61 | < 4.52 | 5.21 | < 4.52 | 4.87 | 4.66 | < 4.52 | < 4.52 | < 4.52 | 5.24 | 6.19 | < 4.52 | – | – | – | –
C#CCNC(=O)c1cc(Nc2cc(C)[nH]n2)nc(N2CCN(Cc3ccc(S(=O)(=O)F)cc3)CC2)n1 | – | – | < 4.52 | – | – | – | – | – | < 4.52 | < 4.52 | < 4.52 | – | < 4.52 | – | – | < 4.52 | – | – | –
Cc1cc(Nc2cc(C(=O)NCCNC(=O)OC3CC/C=C/CCC3)nc(N3CCN(Cc4ccc(S(=O)(=O)F)cc4)CC3)n2)n[nH]1 (stereo not drawn) | – | – | < 4.52 | – | – | < 4.52 | – | – | < 4.52 | – | – | – | < 4.52 | – | – | < 4.52 | < 4.52 | – | –
O=C(NCCNC(=O)c1cc(Nc2cc(C3CC3)[nH]n2)nc(N2CCN(Cc3ccc(S(=O)(=O)F)cc3)CC2)n1)OC1CC/C=C/CCC1 (stereo not drawn) | 5.68 | < 4.52 | < 4.52 | < 4.52 | < 4.52 | < 4.52 | < 4.52 | < 4.52 | < 4.52 | < 4.52 | – | < 4.52 | < 4.52 | 6.02 | < 4.52 | < 4.52 | – | < 4.52 | –
CCNC(=O)c1cc(Nc2cc(C)[nH]n2)nc(N2CCN(Cc3ccc(S(=O)(=O)F)cc3)CC2)n1 | – | – | – | – | – | 4.62 | – | – | < 4.52 | – | < 4.52 | – | < 4.52 | – | – | < 4.52 | – | < 4.52 | –
CCNC(=O)c1cc(Nc2cc(C3CC3)[nH]n2)nc(N2CCN(Cc3ccc(S(=O)(=O)F)cc3)CC2)n1 | – | – | 5.52 | – | – | 5.2 | – | – | – | – | < 4.52 | – | – | – | – | – | – | – | < 4.52
